# Measurements: ChEMBL document CHEMBL1201862, “PubChem BioAssay data set” (2004)
# Active and inactive are the calls of the source.
# Key:
# Protein Tat = target: T1, Protein Tat (Human immunodeficiency virus type 1 group M subtype B (isolate HXB2)(HIV-1), UniProt P04608); assay type: functional;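 also: tat binding to TAR RNA read out by fluorescence polarization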
# T1 sequence (P04608 whole entry): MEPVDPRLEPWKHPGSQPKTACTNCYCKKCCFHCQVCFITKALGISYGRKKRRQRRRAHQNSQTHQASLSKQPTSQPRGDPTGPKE
# [1] = test system: Streptococcus sp. 'group A'; test: Streptococcus pyogenes SK(-)GAS viability under kanamycin – luminescence, BacTiterGlo, confirmation, counter-screen for streptokinase expression inhibitor project, dose response (AID 1900); assay type: functional, organism-based
# Streptococcus = test: GAS UMAA2166 growth inhibition – luminescence, BacTiterGlo, counter-screen for streptokinase expression inhibitor project, dose response (AID 1915); assay type: functional, organism-based;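 also: potency for reduction of bacterial viability or growth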
# [2] = IC50 of Artemis nuclease activity blockers – biochemical, fluorescence intensity, dose response (AID 720701); assay type: functional;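 also: Artemis endonuclease enzyme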
# [3] = viability loss in human Jurkat cells – cell-based, luminescence, cytotoxicity control for P. falciparum gametocyte viability project, dose response (AID 1117277); assay type: functional;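 also: potency reflects loss of cellular ATP meaning fewer viable cells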
# [4] = viability inhibitors of stage V gametocytes – luminescence, dose response (AID 1117278); assay type: functional, cell-based;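 also: gametocytes exposed to compound for 24 hours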
# [5] = toxicity toward HepG2 liver cells – cell-based, plate reader, cherry-pick, antagonist series, cytotoxicity control, dose response (AID 743416); assay type: functional
# [6] = viability loss in HEK293 cells – cell-based, plate reader, cherry-picked samples, cytotoxicity control, dose response (AID 743446); assay type: functional
# [7] = blockade of melanocortin 4 receptor signaling – cell-based, plate reader, cherry pick, counter-screen for LGR2 antagonist project, dose response (AID 743444); assay type: functional;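 also: transfected HEK 293 cells stimulated with alpha-MSH peptide; potency of inhibitors of the alpha-MSH evoked signal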
# [8] = blockers of bursicon-stimulated LGR2 cAMP reporter – cell-based, HEK293, CRE-luciferase reporter, cherry pick, set 2, dose response (AID 743343); assay type: functional;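 also: transfected cells were stimulated with diluted bursicon conditioned medium after compound addition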
# HEK293 = test: EBV LMP1 TES2 canonical NF-kB signalling blockers – cell-based, HEK293, luciferase, cherry-pick, dose response (AID 588343); assay type: functional; settings: Homo sapiens
# Paired box protein Pax-8 = Paired box protein Pax-8 (Homo sapiens, UniProt Q06710); test: PAX8 transcriptional activity inhibition in RMG-I – RMG-I cells, luciferase, cherry-pick, dose response (AID 687027); assay type: functional, cell-based;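 also: luciferase reporter driven by Pax8 target thyroperoxidase promoter measured by SteadyGlo luminescence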
# [9] = A549 cell cytotoxicity, dose response, cytotoxicity control, plate reader, cherry-pick, antagonist series (AID 743412); assay type: functional, cell-based
# [10] = target: T2, Bifunctional protein GlmU (Mycobacterium tuberculosis, UniProt P9WMN3); test: Inhibitors of Mycobacterial Glucosamine-1-phosphate acetyl transferase (GlmU). Secondary screen.; set-up: species or system Mycobacterium tuberculosis H37Rv
# T2 sequence (P9WMN3 whole entry): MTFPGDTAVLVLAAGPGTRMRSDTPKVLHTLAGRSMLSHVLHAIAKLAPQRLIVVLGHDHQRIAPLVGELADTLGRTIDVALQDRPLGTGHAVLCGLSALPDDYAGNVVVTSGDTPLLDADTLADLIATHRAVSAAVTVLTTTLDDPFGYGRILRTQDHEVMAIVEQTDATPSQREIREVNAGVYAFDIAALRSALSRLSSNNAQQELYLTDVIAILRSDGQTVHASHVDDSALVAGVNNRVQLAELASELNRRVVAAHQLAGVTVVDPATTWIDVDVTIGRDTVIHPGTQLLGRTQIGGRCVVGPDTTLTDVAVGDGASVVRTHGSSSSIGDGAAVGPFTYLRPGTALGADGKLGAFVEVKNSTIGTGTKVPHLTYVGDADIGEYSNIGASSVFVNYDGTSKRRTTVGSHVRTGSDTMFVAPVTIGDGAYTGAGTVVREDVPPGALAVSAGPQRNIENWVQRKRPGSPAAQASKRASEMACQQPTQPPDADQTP
# Aminopeptidase N = target: T3, Aminopeptidase N (Plasmodium falciparum FcB1/Columbia, UniProt O96935); test: malaria alanyl aminopeptidase activity blockers – biochemical, fluorogenic H-Leu-NHMec substrate, 1536-well (AID 1445); set-up: species or system Plasmodium falciparum 3D7, 3D7
# T3 sequence (O96935 whole entry): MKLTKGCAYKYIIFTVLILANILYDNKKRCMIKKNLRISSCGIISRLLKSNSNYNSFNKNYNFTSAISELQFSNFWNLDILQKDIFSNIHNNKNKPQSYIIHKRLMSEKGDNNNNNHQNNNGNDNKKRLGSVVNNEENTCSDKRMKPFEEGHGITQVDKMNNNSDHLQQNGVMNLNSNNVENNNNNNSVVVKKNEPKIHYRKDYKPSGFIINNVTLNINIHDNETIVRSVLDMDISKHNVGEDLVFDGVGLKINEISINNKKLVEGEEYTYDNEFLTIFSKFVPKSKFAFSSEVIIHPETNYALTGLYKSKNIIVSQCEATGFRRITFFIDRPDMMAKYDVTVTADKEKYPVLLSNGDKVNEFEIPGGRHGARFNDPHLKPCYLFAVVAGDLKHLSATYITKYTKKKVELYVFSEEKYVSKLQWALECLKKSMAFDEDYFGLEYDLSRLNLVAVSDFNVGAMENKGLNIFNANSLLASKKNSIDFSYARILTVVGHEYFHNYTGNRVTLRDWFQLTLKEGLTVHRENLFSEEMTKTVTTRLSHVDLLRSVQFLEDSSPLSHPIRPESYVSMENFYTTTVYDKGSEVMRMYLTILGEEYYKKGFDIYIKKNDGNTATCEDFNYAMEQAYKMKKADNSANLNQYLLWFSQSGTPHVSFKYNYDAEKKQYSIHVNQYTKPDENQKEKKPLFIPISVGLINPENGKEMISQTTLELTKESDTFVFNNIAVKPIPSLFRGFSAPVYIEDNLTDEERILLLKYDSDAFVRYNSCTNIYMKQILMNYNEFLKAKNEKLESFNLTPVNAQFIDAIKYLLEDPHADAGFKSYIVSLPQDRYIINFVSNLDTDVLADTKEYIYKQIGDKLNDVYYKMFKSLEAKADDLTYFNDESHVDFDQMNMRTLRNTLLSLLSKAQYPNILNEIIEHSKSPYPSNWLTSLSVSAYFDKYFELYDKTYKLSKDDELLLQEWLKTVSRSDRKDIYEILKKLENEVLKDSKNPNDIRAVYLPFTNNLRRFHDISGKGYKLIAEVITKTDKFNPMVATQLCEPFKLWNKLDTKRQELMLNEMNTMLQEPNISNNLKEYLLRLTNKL
# [11] = target: T4, Mannose-6-phosphate isomerase (Homo sapiens, UniProt P34949); test: MPI inhibition at elevated mannose 6-phosphate – biochemical, fluorescence intensity, high mannose 6-phosphate, primary screen (AID 1220)
# T4 sequence (P34949 whole entry): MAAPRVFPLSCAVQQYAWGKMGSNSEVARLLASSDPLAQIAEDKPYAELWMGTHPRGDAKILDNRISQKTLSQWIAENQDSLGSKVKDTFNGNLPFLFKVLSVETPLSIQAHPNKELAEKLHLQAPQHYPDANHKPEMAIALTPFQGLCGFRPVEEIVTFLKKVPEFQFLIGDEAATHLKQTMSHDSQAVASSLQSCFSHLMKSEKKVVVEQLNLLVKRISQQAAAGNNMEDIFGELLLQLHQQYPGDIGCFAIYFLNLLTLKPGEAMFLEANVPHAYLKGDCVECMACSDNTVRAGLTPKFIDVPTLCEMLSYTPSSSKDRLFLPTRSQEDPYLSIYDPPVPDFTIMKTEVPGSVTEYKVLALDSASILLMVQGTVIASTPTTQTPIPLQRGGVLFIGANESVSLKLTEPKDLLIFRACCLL
# Sequence of Paired box protein Pax-8 (Q06710 whole entry): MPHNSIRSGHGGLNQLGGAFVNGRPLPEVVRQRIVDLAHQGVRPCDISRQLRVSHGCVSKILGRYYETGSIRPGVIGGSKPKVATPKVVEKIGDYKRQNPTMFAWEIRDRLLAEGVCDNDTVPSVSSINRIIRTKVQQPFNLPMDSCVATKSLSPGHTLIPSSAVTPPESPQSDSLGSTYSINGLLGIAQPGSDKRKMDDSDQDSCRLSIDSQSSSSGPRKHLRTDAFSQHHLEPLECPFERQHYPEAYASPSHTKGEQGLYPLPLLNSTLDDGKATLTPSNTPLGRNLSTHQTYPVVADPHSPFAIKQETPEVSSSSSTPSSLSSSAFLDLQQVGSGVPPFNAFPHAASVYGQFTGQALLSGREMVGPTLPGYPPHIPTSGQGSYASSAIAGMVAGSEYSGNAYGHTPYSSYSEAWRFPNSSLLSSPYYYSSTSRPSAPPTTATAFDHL
Compound,IC50 [3],IC50 [4],AC50 [5],AC50 [6],AC50 [7],AC50 [8],also measured
CCC(=O)Nc1cc(C)c(NC(=O)C23CC4CC(CC(C4)C2)C3)cn1,,,,,,,IC50 (Protein Tat): > 100 µM (active)
CC(C)Cn1c2c(c(O)c(C(=O)Nc3ncccc3O)c1=O)CCCC2,,,,,,,EC50 [1]: 2.97 µM (active); EC50 (Streptococcus): 3.34 µM (active); IC50 [2]: 16.3 µM (active)
COc1ccc(-c2nc(C[S+]([O-])CC(=O)NCCCN3CC(C)CC(C)C3)c(C)o2)cc1OC (stereo not drawn),> 83.3 µM (inactive),> 109 µM (inactive),,,,,
CCCc1cc(O)nc(SCC(=O)N2CCN(S(=O)(=O)c3ccc4ccccc4c3)CC2)n1,> 83.3 µM (inactive),> 109 µM (inactive),,,,,
COc1ccc(-c2[nH]ncc2-c2ccc3c(c2)OCCO3)c(O)c1,,,> 52 µM (inactive),> 52 µM (inactive),0.723 µM (active),2.97 µM (active),AC50 (HEK293): 1.78 µM (active)
Cn1nnnc1Sc1ncnc2scc(-c3ccc([N+](=O)[O-])cc3)c12,,,7.05 µM (active),6.48 µM (active),5.32 µM (active),6.25 µM (active),AC50 (Paired box protein Pax-8): 2.57 µM (active); AC50 [9]: 6.71 µM (active)
CCOC(=O)CNC(=O)c1cc(OC)cc(OC)c1,> 83.3 µM (inactive),> 109 µM (inactive),,,,,
O=C1NC(=S)S/C1=C\c1coc2ccc(O)cc2c1=O,,,,,,,IC50 [10]: 112 µM (active); IC50 (Aminopeptidase N): 38.8 µM (active)
CCC1Cc2c(nc(N)c3c(N)nc(N4CCCCC4)c(C#N)c23)O1 (stereo not drawn),,,,,,,IC50 [11]: > 50 µM (not active)
COc1ccc(-n2ncc3c(N4CCC(C)CC4)ncnc32)cc1,,,> 52 µM (inactive),> 52 µM (inactive),19.3 µM (active),11.6 µM (active),
